Patent US11702404B2, “GLP-1R modulating compounds” (priority 2019, dated 2023)
Where two headings read alike, the source gives them in different places.

Key:
GLP-1R = GLP-1R (Homo sapiens, UniProt P43220); assay: GLP-1R activation: cAMP increase in CHO cells stably expressing GLP-1R; format: cell-based
[1] = Microsomal stability, human liver microsomes (predicted hepatic clearance); settings: predicted from in vitro microsomal stability data
[2] = cAMP increase, CHO cells stably expressing GLP-1R, 10 point dose response, 30 minutes incubation, read-out: EC50

Chain of GLP-1R (P43220 24-463): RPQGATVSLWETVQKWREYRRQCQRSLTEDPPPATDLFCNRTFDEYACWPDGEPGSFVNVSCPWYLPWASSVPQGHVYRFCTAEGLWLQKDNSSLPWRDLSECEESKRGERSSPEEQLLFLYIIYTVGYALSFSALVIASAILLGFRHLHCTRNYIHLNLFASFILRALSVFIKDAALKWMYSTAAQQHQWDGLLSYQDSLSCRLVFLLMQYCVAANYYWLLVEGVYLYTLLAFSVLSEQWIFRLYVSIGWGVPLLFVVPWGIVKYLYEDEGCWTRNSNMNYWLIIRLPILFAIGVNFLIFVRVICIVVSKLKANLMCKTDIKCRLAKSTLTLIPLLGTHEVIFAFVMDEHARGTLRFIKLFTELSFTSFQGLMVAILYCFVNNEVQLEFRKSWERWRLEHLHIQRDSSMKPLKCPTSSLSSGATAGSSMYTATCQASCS

SMILES	EC50 (GLP-1R; [2]) [nM]	Predicted Hepatic Clearance (Pred. Cl.) [1] [mL/min/kg]	EC50 (GLP-1R; EC50 (nM)) [nM]
COCCn1c(Cc2ccc(-c3cccc(OCc4cccnc4OC)n3)cc2F)nc2ccc(C(=O)O)cc21 [Example 511, 2-(2-fluoro-4-(6-((2-methoxypyridin-3-yl)methoxy)pyridin-2-yl)benzyl)-1-(2-methoxyethyl)-1H-benzo[d]imidazole-6-carboxylic acid]	29.7	18.7	
COCCn1c(Cc2ccc(-c3cccc(OCc4nccn4C)n3)cc2F)nc2ccc(C(=O)O)cc21 [Example 512, 2-(2-fluoro-4-(6-((1-methyl-1H-imidazol-2-yl)methoxy)pyridin-2-yl)benzyl)-1-(2-methoxyethyl)-1H-benzo[d]imidazole-6-carboxylic acid]	6560	7.67	
COCCn1c(Cc2ccc(-c3cccc(OCn4ccc(C#N)cc4=O)n3)cc2F)nc2ccc(C(=O)O)cc21 [Example 513, 2-(4-(6-((4-cyano-2-oxopyridin-1(2H)-yl)methoxy)pyridin-2-yl)-2-fluorobenzyl)-1-(2-methoxyethyl)-1H-benzo[d]imidazole-6-carboxylic acid]	55.1	5.17	
COCCn1c(Cc2ccc(-c3cccc(OCc4ccccc4F)n3)cc2F)nc2ccc(C(=O)O)cc21 [Example 514, 2-(2-fluoro-4-(6-((2-fluorobenzyl)oxy)pyridin-2-yl)benzyl)-1-(2-methoxyethyl)-1H-benzo[d]imidazole-6-carboxylic acid]	60.8	15.2	
COCCn1c(Cc2ccc(-c3cccc(O[C@H](C)c4ccccc4)n3)cc2F)nc2ccc(C(=O)O)cc21 [Example 515, (R)-2-(2-fluoro-4-(6-(1-phenylethoxy)pyridin-2-yl)benzyl)-1-(2-methoxyethyl)-1H-benzo[d]imidazole-6-carboxylic acid]	876	7.5	
COCCn1c(Cc2ccc(-c3cccc(OCc4ccccc4NS(C)(=O)=O)n3)cc2F)nc2ccc(C(=O)O)cc21 [Example 516, 2-(2-fluoro-4-(6-((2-(methylsulfonamido)benzyl)oxy)pyridin-2-yl)benzyl)-1-(2-methoxyethyl)-1H-benzo[d]imidazole-6-carboxylic acid]	2460	<1.83	
COCCn1c(Cc2ncc(-c3cccc(OCc4ccc(C#N)cc4F)n3)cc2Cl)nc2ccc(C(=O)O)cc21 [Example 518, 2-((5′-chloro-6-((4-cyano-2-fluorobenzyl)oxy)-[2,3′-bipyridin]-6′-yl)methyl)-1-(2-methoxyethyl)-1H-benzo[d]imidazole-6-carboxylic acid]	43.1	5.33	
CCn1c(Cn2c(Cc3ccc(-c4cccc(OCc5ccc(C#N)cc5F)n4)cc3F)nc3ccc(C(=O)O)cc32)cnc1C [Example 519, 2-(4-(6-((4-cyano-2-fluorobenzyl)oxy)pyridin-2-yl)-2-fluorobenzyl)-1-((l-ethyl-2-methyl-1H-imidazol-5-yl)methyl)-1H-benzo[d]imidazole-6-carboxylic acid]	39.3	3.5	
CCn1cncc1Cn1c(Cc2ccc(-c3cccc(OCc4ccc(C#N)cc4F)n3)cc2C#N)nc2ccc(C(=O)O)cc21 [Example 522, 2-(2-cyano-4-(6-((4-cyano-2-fluorobenzyl)oxy)pyridin-2-yl)benzyl)-1-((1-ethyl-1H-imidazol-5-yl)methyl)-1H-benzo[d]imidazole-carboxylic acid]	137	<1.83	
CCn1nccc1Cn1c(Cc2ccc(-c3cccc(OCc4ccc(C#N)cc4F)n3)cc2F)nc2ccc(C(=O)O)cc21 [Example 524, 2-(4-(6-((4-cyano-2-fluorobenzyl)oxy)pyridin-2-yl)-2-fluorobenzyl)-1-((l-ethyl-1H-pyrazol-5-yl)methyl)-1H-benzo[d]imidazole-6-carboxylic acid]	66.5	7.17	
COCCn1c(Cc2ccc(-c3cccc(OCc4ccc(C#N)cc4F)n3)c(C#N)c2)nc2ccc(C(=O)O)cc21 [Example 526, 2-(3-cyano-4-(6-((4-cyano-2-fluorobenzyl)oxy)pyridin-2-yl)benzyl)-1-(2-methoxyethyl)-1H-benzo[d]imidazole-6-carboxylic acid]		7.5	70.9
N#Cc1ccc(COc2cccc(-c3ccc(Cc4nc5ccc(C(=O)O)cc5n4Cc4cncnc4)c(F)c3)n2)c(F)c1 [Example 532, 2-(4-(6-((4-cyano-2-fluorobenzyl)oxy)pyridin-2-yl)-2-fluorobenzyl)-1-(pyrimidin-5-ylmethyl)-1H-benzo[d]imidazole-6-carboxylic acid]	58.6	<1.83	
CCn1nccc1Cn1c(Cc2ccc(-c3cccc(OCc4ccc(C#N)cc4F)n3)c(F)c2)nc2ccc(C(=O)O)cc21 [Example 533, 2-(4-(6-((4-cyano-2-fluorobenzyl)oxy)pyridin-2-yl)-3-fluorobenzyl)-1-((1-ethyl-1H-pyrazol-5-yl)methyl)-1H-benzo[d]imidazole-6-carboxylic acid]	47.1	10	
CCc1cnccc1Cn1c(Cc2ccc(-c3cccc(OCc4ccc(C#N)cc4F)n3)c(F)c2)nc2ccc(C(=O)O)cc21 [Example 534, 2-(4-(6-((4-cyano-2-fluorobenzyl)oxy)pyridin-2-yl)-3-fluorobenzyl)-1-((3-ethylpyridin-4-yl)methyl)-1H-benzo[d]imidazole-6-carboxylic acid]	49.9	15.2	

Second part, led by results:

EC50 (GLP-1R; [2]) [nM]	Predicted Hepatic Clearance (Pred. Cl.) [1] [mL/min/kg]	SMILES	EC50 (GLP-1R; EC50 (nM)) [nM]
0.06	<1.83	O=C(O)c1ccc2nc(Cc3cc(F)c(-c4cccc(OCc5ccc(C(F)(F)F)cc5)n4)cc3F)n(C[C@@H]3CCO3)c2c1 [Example 517, (S)-2-(2,5-difluoro-4-(6-((4-(trifluoromethyl)benzyl)oxy)pyridin-2-yl)benzyl)-1-(oxetan-2-ylmethyl)-1H-benzo[d]imidazole-6-carboxylic acid]	
0.36	6.25	CCn1cncc1Cn1c(Cc2ccc(-c3cccc(OCc4ccc(C#N)cc4F)n3)c(F)c2)nc2ccc(C(=O)O)cc21 [Example 520, 2-(4-(6-((4-cyano-2-fluorobenzyl)oxy)pyridin-2-yl)-3-fluorobenzyl)-1-((1-ethyl-1H-imidazol-5-yl)methyl)-1H-benzo[d]imidazole-6-carboxylic acid]	
0.54	6.75	N#Cc1ccc(COc2cccc(-c3ccc(Cc4nc5ccc(C(=O)O)cc5n4CC4(CF)CC4)cc3F)n2)c(F)c1 [Example 521, 2-(4-(6-((4-cyano-2-fluorobenzyl)oxy)pyridin-2-yl)-3-fluorobenzyl)-1-((1-(fluoromethyl)cyclopropyl)methyl)-1H-benzo[d]imidazole-6-carboxylic acid]	
0.51	5	N#Cc1ccc(COc2cccc(-c3ccc(Cc4nc5ccc(C(=O)O)cc5n4C[C@@H]4CCO4)cc3F)n2)c(F)c1 [Example 523, (S)-2-(4-(6-((4-cyano-2-fluorobenzyl)oxy)pyridin-2-yl)-3-fluorobenzyl)-1-(oxetan-2-ylmethyl)-1H-benzo[d]imidazole-6-carboxylic acid]	
0.6	2	CCn1cncc1Cn1c(Cc2ccc(-c3cccc(OCc4ccc(C#N)cc4F)n3)cc2F)nc2ccc(C(=O)O)cc21 [Example 525, 2-(4-(6-((4-cyano-2-fluorobenzyl)oxy)pyridin-2-yl)-2-fluorobenzyl)-1-((1-ethyl-1H-imidazol-5-yl)methyl)-1H-benzo[d]imidazole-6-carboxylic acid]	
1.84	3.67	CCn1cncc1Cn1c(Cc2ccc(-c3cccc(OCc4ccc(C#N)cc4F)c3)cc2F)nc2ccc(C(=O)O)cc21 [Example 527, 2-((3′-((4-cyano-2-fluorobenzyl)oxy)-3-fluoro-[1,1′-biphenyl]-4-yl)methyl)-1-((1-ethyl-1H-imidazol-5-yl)methyl)-1H-benzo[d]imidazole-6-carboxylic acid]	
0.45	7.5	N#Cc1ccc(COc2cccc(-c3ccc(Cc4nc5ccc(C(=O)O)cc5n4CC4(C(F)F)CC4)cc3F)n2)c(F)c1 [Example 528, 2-(4-(6-((4-cyano-2-fluorobenzyl)oxy)pyridin-2-yl)-3-fluorobenzyl)-1-((1-(difluoromethyl)cyclopropyl)methyl)-1H-benzo[d]imidazole-6-carboxylic acid]	
0.43	10.5	N#CCC1(Cn2c(Cc3ccc(-c4cccc(OCc5ccc(C#N)cc5F)n4)c(F)c3)nc3ccc(C(=O)O)cc32)CC1 [Example 530, 2-(4-(6-((4-cyano-2-fluorobenzyl)oxy)pyridin-2-yl)-3-fluorobenzyl)-1-((1-(cyanomethyl)cyclopropyl)methyl)-1H-benzo[d]imidazole-6-carboxylic acid]	
12.8	2.25	N#Cc1ccc(COc2cccc(-c3ccc(Cc4nc5ccc(C(=O)O)cc5n4Cc4ccccc4)c(F)c3)n2)c(F)c1 [Example 531, 1-benzyl-2-(4-(6-((4-cyano-2-fluorobenzyl)oxy)pyridin-2-yl)-2-fluorobenzyl)-1H-benzo[d]imidazole-6-carboxylic acid]	
0.66	4.17	O=C(O)c1ccc2nc(Cc3ccc(-c4cccc(OCc5ccc(Cl)cc5F)n4)c(F)c3)n(CC3(CF)CC3)c2c1 [Example 535, 2-(4-(6-((4-chloro-2-fluorobenzyl)oxy)pyridin-2-yl)-3-fluorobenzyl)-1-((1-(fluoromethyl)cyclopropyl)methyl)-1H-benzo[d]imidazole-6-carboxylic acid]	
